Converted amounts (≈) assume the structure as drawn.

Data set [1] in a line: in vivo. As to conditions: CD-1, mouse, brain, po, 100 mg/kg.
Data set [2] can be described thus: in vitro. As to conditions: human, Caco-2.
Data set [3] can be described thus: in vitro. As to conditions: human, Caco-2. The source holds these as a separate data set.
A short description of data set [4]: Apparent permeability in human Caco2 cells. It counts as ADME, cell-based. As to conditions: Caco-2. (In general: Passage across Caco-2 layers is used to estimate intestinal permeability.)
Data set [5] in a line: physchem. The following applies: phosphate buffered saline, pH 2.
Data set [6] can be described thus: physchem. The following applies: phosphate buffered saline, pH 4.5.
A short description of data set [7]: physchem. The following applies: phosphate buffered saline, pH 6.8.
The nature of data set [8]: in vivo. The following applies: mouse, po, 30 mg/kg.
Data set [9] in a line: in vivo. As to conditions: mouse, po, 30 mg/kg. The source holds these as a separate data set.
A short description of data set [10]: in vivo. The following applies: mouse, iv, 10 mg/kg.
Data set [11] can be described thus: in vivo. The following applies: mouse, iv, 10 mg/kg. This is another data set of the same source.
Data set [12] can be described thus: in vivo. The following applies: mouse.
The nature of data set [13]: in vivo. As to conditions: mouse, po, 30 mg/kg. The source holds these as a separate data set.
A short description of data set [14]: in vivo. As to conditions: mouse, brain and plasma, po, 30 mg/kg.
Data set [15] in a line: in vivo. The following applies: rat, po, 30 mg/kg.
Data set [16] is described as follows: in vivo. As to conditions: rat, po, 30 mg/kg. This is another data set of the same source.
Data set [17] can be described thus: in vivo. The following applies: rat, iv, 10 mg/kg.
A short description of data set [18]: in vivo. As to conditions: rat, iv, 10 mg/kg. This is another data set of the same source.
A short description of data set [19]: in vivo. As to conditions: rat.
Data set [20] is described as follows: in vivo. As to conditions: rat, po, 30 mg/kg. The source holds these as a separate data set.
Data set [21] in a line: in vivo. As to conditions: dog, po, 10 mg/kg.
A short description of data set [22]: in vivo. The following applies: dog, po, 10 mg/kg. This is another data set of the same source.
Data set [23] can be described thus: in vitro. The following applies: mouse, liver microsomes. A general note: Liver microsomes are vesicles of endoplasmic reticulum, rich in cytochrome P450 enzymes.
Data set [24] is described as follows: in vitro. The following applies: mouse, plasma.
Data set [25] is described as follows: in vitro. As to conditions: rat, liver microsomes.
Data set [26] is described as follows: in vitro. The following applies: dog, liver microsomes.
Data set [27] in a line: in vitro. The following applies: human, liver microsomes.

One may read the Papp A→B as how fast a substance crosses the layer from the apical side. Higher therefore signals fast passage. A word on the Papp B→A: it is how fast a substance crosses the layer from the basolateral side. Take `CC(C)(C)NC(=O)COc1cccc(-c2nc3c(c(Nc4ccc(-c5cn[nH]c5)cc4)n2)CN(C2CCC2)CC3)c1`: the Kp at 1 h in [1] was 0.1. The compound further gave a Papp A→B at 5 µM in data set [2] of 4.58 ×10⁻⁶ cm/s. The same compound had a Papp B→A at 5 µM in data set [3] of 6.09 ×10⁻⁶ cm/s.

For orientation: Papp means a coefficient for how fast a substance crosses the barrier. One may read the solubility as the dissolved amount per volume that the medium holds. The low end stands for little dissolved substance, the high end for much dissolved substance. As for `CCOc1ccc2nc(-c3cccc(OCC(=O)NC(C)C)c3)nc(Nc3ccc(-c4cn[nH]c4)cc3)c2c1`, the apparent permeability coefficient (Papp) in data set [4] came out at 2 ×10⁻⁶ cm/s. Moreover, the solubility stood at 3.36 µM (≈ 1.76 µg/mL) in data set [5], 0.01 µM (≈ 0.00523 µg/mL) in data set [6] and 0.03 µM (≈ 0.0157 µg/mL) in [7].

As a reminder, the Cmax is the maximum level reached in the sampled fluid or tissue. What is called AUC is concentration integrated over time. Read a low AUC as less exposure. For orientation: clearance means the rate of elimination divided by the concentration. Higher therefore signals a high capacity for elimination. What is called Vd is the apparent volume that relates the amount in the body to the concentration in plasma or blood. In general, half-life refers to how long it takes for the measured level to halve. Lower therefore signals fast loss. A word on the bioavailability: it is dose-corrected exposure relative to a reference, in per cent. A word on the share remaining: it is what is left of the initial amount, in per cent. A lower share remaining goes with more turnover. `CC1(NC(=O)COc2cccc(-c3nc4c(c(Nc5ccc(-c6cn[nH]c6)cc5)n3)CN(C3CCC3)CC4)c2)CC1`: the figures for the maximum concentration (Cmax) in [8] and in data set [15] were 2520 ng/mL and 1680 ng/mL, respectively. The exposure (AUC) is 5890 ng·h/mL in data set [9] and 6810 ng·h/mL in data set [16]. The figures for the clearance in data set [10] and in data set [17] were 40 mL/min/kg and 37 mL/min/kg, respectively. The volume of distribution (Vd) in data set [11] is 1.7 L/kg; in data set [18] it was 4.51 L/kg. Besides, the half-life is 0.785 h in data set [12], 2.59 h in data set [19], 0.967 h in [26] and 1.93 h in [27]. The bioavailability in data set [13] came out at 45.4%; in data set [20] it was 49.4%; in data set [21], 19%; in [22] it was 29%. The compound also had a Kp at 2 h in [14] of 0.05. In data set [1], this compound showed a Kp at 1 h of 0.05. In addition, the solubility in data set [5] turned out to be 291 µM (≈ 160 µg/mL); in [6], 256 µM (≈ 141 µg/mL); in data set [7], 1.4 µM (≈ 0.77 µg/mL). Moreover, the half-life at 2 µM in data set [23] was 1.17 h; in data set [25], 1.05 h. For the same compound, in data set [24], the share remaining at 18 h was over 95%. Also, in [2], the apparent permeability from apical to basolateral (Papp A→B) at 5 µM stood at 11.2 ×10⁻⁶ cm/s. The compound also had a Papp B→A at 5 µM in [3] of 4.33 ×10⁻⁶ cm/s.

The values are drawn from ChEMBL document CHEMBL4602704, “Discovery and Optimization of Glucose Uptake Inhibitors” (J Med Chem, 2020).
